According to publication doi:10.1101/2025.11.20.689572v1 (biorxiv, 2025):
pEC50, pKi: −log10 of the molar value. Read-outs that look alike come from different tables or passages of the source.

Columns and labels:
5-HT2A = target: T1, 5-HT2A (Homo sapiens, UniProt P28223); experiment: competitive radioligand binding, HEK293 membranes
T1 construct: gene HTR2A; full-length receptor; HEK293 cell membranes
From the text: competitive radioligand binding, HEK293 membranes on 5-HT2A

5-HT1B = target: T2, 5-HT1B (Homo sapiens, UniProt P28222); experiment: competitive radioligand binding, HEK293 membranes
T2 construct: gene HTR1B; full-length receptor; HEK293 cell membranes
From the text: competitive radioligand binding, HEK293 membranes on 5-HT1B

5-HT1F = target: T3, 5-HT1F (Homo sapiens, UniProt P30939); experiment: competitive radioligand binding, HEK293 membranes
T3 construct: gene HTR1F; full-length receptor; HEK293 cell membranes
From the text: competitive radioligand binding, HEK293 membranes on 5-HT1F

HRH3 [1] = target: T4, HRH3 (Homo sapiens, UniProt Q9Y5N1); experiment: cell-based; design: species or system HTLA; PRESTO-Tango beta-arrestin2 recruitment, luciferase luminescence, concentration-response; details: Assay=Tango; agonist mode
M3 = target: T5, M3 (Homo sapiens, UniProt P20309); experiment: competitive radioligand binding, HEK293 membranes
T5 construct: gene CHRM3; full-length receptor; HEK293 with TRUPATH sensors (function)
From the text: competitive radioligand binding, HEK293 membranes on M3

HRH3 [2] = target: T4, HRH3; experiment: cell-based; design: species or system HEK293; TRUPATH BRET2 G-protein dissociation; antagonist mode against agonist EC80; details: agonist mode, % of control agonist
HTR1D = HTR1D (Homo sapiens, UniProt P28221); experiment: cell-based; design: species or system HEK293; TRUPATH BRET2 G-protein dissociation; antagonist mode against agonist EC80; details: agonist mode, % of control agonist
CHRM4 = target: T6, CHRM4 (Homo sapiens, UniProt P08173); experiment: cell-based; design: species or system HEK293; TRUPATH BRET2 G-protein dissociation; antagonist mode against agonist EC80; details: agonist mode, % of control agonist
T6 sequence (P08173 1-479): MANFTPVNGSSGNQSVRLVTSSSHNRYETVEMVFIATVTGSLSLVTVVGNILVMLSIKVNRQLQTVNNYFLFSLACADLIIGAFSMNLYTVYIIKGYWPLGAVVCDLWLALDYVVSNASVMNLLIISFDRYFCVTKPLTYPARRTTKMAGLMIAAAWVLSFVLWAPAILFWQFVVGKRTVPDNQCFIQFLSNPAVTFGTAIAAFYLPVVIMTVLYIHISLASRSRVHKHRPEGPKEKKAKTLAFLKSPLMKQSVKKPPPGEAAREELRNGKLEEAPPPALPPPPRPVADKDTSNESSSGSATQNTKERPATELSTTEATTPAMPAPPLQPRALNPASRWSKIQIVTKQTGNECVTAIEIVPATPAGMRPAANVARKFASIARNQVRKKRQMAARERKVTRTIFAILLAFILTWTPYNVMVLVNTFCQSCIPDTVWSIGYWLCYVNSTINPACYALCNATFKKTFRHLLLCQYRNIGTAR

CHRM5 = target: T7, CHRM5 (Homo sapiens, UniProt P08912); experiment: cell-based; design: species or system HEK293; TRUPATH BRET2 G-protein dissociation; antagonist mode against agonist EC80; details: agonist mode, % of control agonist
T7 sequence (P08912 1-532): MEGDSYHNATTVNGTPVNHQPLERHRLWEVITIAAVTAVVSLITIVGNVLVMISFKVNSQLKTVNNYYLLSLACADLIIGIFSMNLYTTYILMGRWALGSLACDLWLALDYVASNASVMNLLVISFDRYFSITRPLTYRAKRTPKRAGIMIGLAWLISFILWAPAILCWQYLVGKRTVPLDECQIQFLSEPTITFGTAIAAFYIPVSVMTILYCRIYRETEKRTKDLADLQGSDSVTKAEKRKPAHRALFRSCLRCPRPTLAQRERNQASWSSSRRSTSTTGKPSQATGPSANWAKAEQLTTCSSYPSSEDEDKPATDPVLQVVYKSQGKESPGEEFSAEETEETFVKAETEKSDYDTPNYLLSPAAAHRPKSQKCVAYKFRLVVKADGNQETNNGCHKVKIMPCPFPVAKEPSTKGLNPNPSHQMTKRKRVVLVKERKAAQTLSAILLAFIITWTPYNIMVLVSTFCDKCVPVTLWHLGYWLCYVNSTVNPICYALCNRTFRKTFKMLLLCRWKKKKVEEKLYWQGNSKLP

CHRM3 = CHRM3 (Homo sapiens, UniProt P20309); experiment: cell-based; design: species or system HEK293; TRUPATH BRET2 G-protein dissociation; antagonist mode against agonist EC80; details: agonist mode, % of control agonist
α2B = target: T8, α2B (Homo sapiens, UniProt P18089); experiment: competitive radioligand binding, HEK293 membranes
T8 construct: gene ADRA2B; full-length receptor; HEK293 cell membranes
From the text: competitive radioligand binding, HEK293 membranes on α2B

[3] = HEK293, read-out: Xanomeline, Assay=Gi2
[4] = HEK293, read-out: Xanomeline, Assay=GoA
[5] = HEK293, read-out: Xanomeline, Assay=GoB
[6] = HEK293, read-out: Xanomeline, Assay=Gi1
[7] = HEK293, read-out: Xanomeline, Assay=Gi3
[8] = HEK293, read-out: Xanomeline, Assay=Gz
[9] = HEK293, read-out: Xanomeline, Assay=Gq
[10] = HEK293, read-out: N-Desmethyl Xanomeline, Assay=Gi1
[11] = HEK293, read-out: N-Desmethyl Xanomeline, Assay=Gi2
[12] = HEK293, read-out: N-Desmethyl Xanomeline, Assay=Gi3
[13] = HEK293, read-out: N-Desmethyl Xanomeline, Assay=GoA
[14] = HEK293, read-out: N-Desmethyl Xanomeline, Assay=GoB
[15] = HEK293, read-out: N-Desmethyl Xanomeline, Assay=Gz
[16] = HEK293, read-out: N-Desmethyl Xanomeline, Assay=Gq

T4 sequence (Q9Y5N1 whole entry): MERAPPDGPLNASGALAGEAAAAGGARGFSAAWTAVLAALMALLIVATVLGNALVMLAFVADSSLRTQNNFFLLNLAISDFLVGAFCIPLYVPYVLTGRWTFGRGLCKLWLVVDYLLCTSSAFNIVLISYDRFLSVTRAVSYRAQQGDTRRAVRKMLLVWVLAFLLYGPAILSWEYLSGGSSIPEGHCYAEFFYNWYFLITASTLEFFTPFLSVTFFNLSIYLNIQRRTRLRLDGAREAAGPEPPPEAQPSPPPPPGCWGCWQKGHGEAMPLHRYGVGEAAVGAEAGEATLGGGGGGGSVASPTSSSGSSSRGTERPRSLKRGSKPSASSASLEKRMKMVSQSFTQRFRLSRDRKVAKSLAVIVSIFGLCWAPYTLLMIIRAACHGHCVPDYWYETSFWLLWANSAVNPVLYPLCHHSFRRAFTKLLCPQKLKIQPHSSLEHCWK
Sequence of HTR1D (P28221 whole entry): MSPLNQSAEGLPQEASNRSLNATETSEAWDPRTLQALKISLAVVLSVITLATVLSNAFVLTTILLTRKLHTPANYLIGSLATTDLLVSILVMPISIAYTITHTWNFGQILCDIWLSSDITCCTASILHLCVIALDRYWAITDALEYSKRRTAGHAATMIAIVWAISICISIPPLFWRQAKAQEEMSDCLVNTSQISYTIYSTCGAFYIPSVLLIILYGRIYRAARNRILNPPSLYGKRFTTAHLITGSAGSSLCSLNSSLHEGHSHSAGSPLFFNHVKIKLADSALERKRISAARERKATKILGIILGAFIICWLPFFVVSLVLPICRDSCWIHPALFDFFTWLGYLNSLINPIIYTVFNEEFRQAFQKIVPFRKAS
T8 sequence (P18089 whole entry): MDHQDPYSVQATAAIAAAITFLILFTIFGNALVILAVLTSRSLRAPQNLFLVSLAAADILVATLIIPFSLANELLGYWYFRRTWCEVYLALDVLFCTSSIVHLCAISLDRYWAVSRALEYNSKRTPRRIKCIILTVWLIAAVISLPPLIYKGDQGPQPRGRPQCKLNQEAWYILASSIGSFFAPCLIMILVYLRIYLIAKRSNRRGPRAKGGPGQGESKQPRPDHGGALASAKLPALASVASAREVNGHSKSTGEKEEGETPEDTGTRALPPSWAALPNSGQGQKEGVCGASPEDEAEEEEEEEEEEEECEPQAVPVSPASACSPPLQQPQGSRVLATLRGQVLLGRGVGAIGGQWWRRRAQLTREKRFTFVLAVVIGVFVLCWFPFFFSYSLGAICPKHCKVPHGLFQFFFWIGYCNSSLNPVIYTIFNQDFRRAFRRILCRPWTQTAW
T2 sequence (P28222 whole entry): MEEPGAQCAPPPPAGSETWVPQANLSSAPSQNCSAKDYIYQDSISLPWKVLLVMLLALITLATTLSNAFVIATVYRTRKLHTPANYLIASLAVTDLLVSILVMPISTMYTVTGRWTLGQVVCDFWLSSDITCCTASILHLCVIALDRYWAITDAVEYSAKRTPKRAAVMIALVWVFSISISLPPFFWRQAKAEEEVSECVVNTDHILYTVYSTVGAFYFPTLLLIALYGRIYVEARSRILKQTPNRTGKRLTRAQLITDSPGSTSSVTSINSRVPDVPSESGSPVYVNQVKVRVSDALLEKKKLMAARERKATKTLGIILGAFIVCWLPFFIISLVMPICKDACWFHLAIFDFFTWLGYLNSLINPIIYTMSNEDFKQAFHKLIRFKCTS
T1 sequence (P28223 whole entry): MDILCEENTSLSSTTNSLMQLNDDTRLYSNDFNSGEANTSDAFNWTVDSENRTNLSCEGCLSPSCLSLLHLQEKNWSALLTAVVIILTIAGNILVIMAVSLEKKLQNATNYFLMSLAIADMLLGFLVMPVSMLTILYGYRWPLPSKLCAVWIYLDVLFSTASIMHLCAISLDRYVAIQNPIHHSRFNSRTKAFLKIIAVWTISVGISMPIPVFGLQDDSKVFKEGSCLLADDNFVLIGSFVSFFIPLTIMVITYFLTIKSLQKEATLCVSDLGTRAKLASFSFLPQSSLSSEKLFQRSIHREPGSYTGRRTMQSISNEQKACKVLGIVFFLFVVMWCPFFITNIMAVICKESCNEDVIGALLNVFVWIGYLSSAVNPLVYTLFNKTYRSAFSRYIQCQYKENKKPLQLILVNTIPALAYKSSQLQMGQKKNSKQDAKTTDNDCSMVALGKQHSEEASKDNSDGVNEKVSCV
T3 sequence (P30939 whole entry): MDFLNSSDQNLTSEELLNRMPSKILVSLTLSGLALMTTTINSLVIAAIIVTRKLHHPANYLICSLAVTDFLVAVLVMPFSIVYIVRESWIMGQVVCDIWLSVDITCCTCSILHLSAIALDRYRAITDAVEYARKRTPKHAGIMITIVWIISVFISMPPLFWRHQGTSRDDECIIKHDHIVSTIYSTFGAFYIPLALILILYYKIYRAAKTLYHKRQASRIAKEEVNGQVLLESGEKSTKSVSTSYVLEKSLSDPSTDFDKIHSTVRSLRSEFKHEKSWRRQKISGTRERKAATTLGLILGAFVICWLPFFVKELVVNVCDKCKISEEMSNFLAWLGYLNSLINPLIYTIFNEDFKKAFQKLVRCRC
Sequence of CHRM3 (P20309 whole entry): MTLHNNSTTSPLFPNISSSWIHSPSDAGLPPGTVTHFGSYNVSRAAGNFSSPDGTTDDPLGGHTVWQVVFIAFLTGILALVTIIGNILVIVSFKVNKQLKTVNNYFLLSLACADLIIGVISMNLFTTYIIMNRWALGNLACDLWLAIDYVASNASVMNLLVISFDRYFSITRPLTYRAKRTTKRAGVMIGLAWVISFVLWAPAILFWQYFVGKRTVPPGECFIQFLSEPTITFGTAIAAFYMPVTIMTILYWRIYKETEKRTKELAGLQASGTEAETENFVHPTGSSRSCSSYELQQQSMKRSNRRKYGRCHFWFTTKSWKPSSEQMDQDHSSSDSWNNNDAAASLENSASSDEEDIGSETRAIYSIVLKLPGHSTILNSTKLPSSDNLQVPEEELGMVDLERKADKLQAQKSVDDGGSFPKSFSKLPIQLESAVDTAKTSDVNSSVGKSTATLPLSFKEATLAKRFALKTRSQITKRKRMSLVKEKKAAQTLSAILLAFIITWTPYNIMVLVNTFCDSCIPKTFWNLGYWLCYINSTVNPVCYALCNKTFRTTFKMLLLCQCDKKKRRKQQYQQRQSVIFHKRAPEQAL
T5 sequence (P20309 whole entry): as above

## CCCCCCOc1nsnc1C1=CCCN(C)C1 [Xanomeline]
5-HT2A
  pKi: 6.60
5-HT1B
  pKi: 6.14
5-HT1F
  pKi: 6.12
HRH3 [1]
  pEC50: 5.02
M3
  pKi: 7.13
HRH3 [2]; [3]
  Emax: 28.5%
HRH3 [2]; [4]
  Emax: 25.7%
HRH3 [2]; [5]
  Emax: 19%
HTR1D; [6]
  Emax: 69.7%
HTR1D; [3]
  Emax: 52.7%
HTR1D; [7]
  Emax: 66.7%
HTR1D; [4]
  Emax: 86.5%
HTR1D; [5]
  Emax: 63.4%
HTR1D; [8]
  Emax: 85.3%
CHRM4; [6]
  Emax: 98.4%
CHRM4; [3]
  Emax: 110%
CHRM4; [7]
  Emax: 86%
CHRM4; [4]
  Emax: 107%
CHRM4; [5]
  Emax: 106%
CHRM4; [8]
  Emax: 94.1%
CHRM5; [9]
  Emax: 82%
CHRM3; [9]
  Emax: 65.6%
α2B
  pKi: 6.50

## CCCCCCOc1nsnc1C1=CCCNC1 [N-desmethylxanomeline]
5-HT2A
  pKi: 6.27
5-HT1B
  pKi: 6.75
5-HT1F
  pKi: 6.65
HRH3 [1]
  pEC50: 5.12
M3
  pKi: 6.95
HRH3 [2]; [10]
  Emax: 75.4%
HRH3 [2]; [11]
  Emax: 65.4%
HRH3 [2]; [12]
  Emax: 84%
HRH3 [2]; [13]
  Emax: 79.3%
HRH3 [2]; [14]
  Emax: 82.8%
HTR1D; [10]
  Emax: 88.1%
HTR1D; [11]
  Emax: 66.3%
HTR1D; [12]
  Emax: 82.1%
HTR1D; [13]
  Emax: 92.2%
HTR1D; [14]
  Emax: 73.8%
HTR1D; [15]
  Emax: 93.6%
CHRM4; [10]
  Emax: 94.1%
CHRM4; [11]
  Emax: 106%
CHRM4; [12]
  Emax: 81.3%
CHRM4; [13]
  Emax: 100%
CHRM4; [14]
  Emax: 102%
CHRM4; [15]
  Emax: 89%
CHRM5; [16]
  Emax: 80.4%
CHRM3; [16]
  Emax: 62.4%
α2B
  pKi: 6.47
